# Laboratory results as given in ChEMBL document CHEMBL3885881, “DrugMatrix”.
# Species: Rattus norvegicus
# Assay: DrugMatrix - Regimen: Daily Repeat
# Format: toxicity, organism-based, Sprague-Dawley
# Parameters: regimen Daily Repeat, gender Male, age 6-8 weeks
# Conditions: in vivo, po, route oral GAVAGE, vehicle .5 % CMC; for ABSOLUTE BASOPHIL / ABSOLUTE EOSINOPHIL / ABSOLUTE LYMPHOCYTE / ABSOLUTE MONOCYTE / ABSOLUTE SEGMENTED NEUTROPHIL / BASOPHIL / EOSINOPHIL / ERYTHROCYTE COUNT / HEMATOCRIT / HEMOGLOBIN / LEUKOCYTE COUNT / LYMPHOCYTE / MEAN CORPUSCULAR HEMOGLOBIN / MEAN CORPUSCULAR HEMOGLOBIN CONCENTRATION / MEAN CORPUSCULAR VOLUME / MONOCYTE / NEUTROPHIL / NUCLEATED RED BLOOD CELLS / PLATELET COUNT: tissue Blood; for ALANINE AMINOTRANSFERASE / ALBUMIN / ALKALINE PHOSPHATASE / ASPARTATE AMINOTRANSFERASE / BLOOD UREA NITROGEN / CARBON DIOXIDE / CHLORIDE / CHOLESTEROL / CREATINE PHOSPHOKINASE / CREATININE / GLUCOSE / LACTATE DEHYDROGENASE / LIPASE / PHOSPHORUS / POTASSIUM / SODIUM / TOTAL BILIRUBIN / TOTAL PROTEIN / URIC ACID: tissue Plasma
# [1] = 29 mg/kg, 120 h, dose level Low, time 5 day
# [2] = 400 mg/kg, 72 h, dose level High, time 3 day
# [3] = 400 mg/kg, 120 h, dose level High, time 5 day
smiles,measurement,setting,value
NC(=O)NC(=O)Cc1ccccc1 [PHENACEMIDE],ABSOLUTE BASOPHIL,[1],0 CELLS/uL
same,ABSOLUTE EOSINOPHIL,[1],29.33 CELLS/uL
same,ABSOLUTE LYMPHOCYTE,[1],6627.33 CELLS/uL
same,ABSOLUTE MONOCYTE,[1],106 CELLS/uL
same,ABSOLUTE SEGMENTED NEUTROPHIL,[1],904 CELLS/uL
same,BASOPHIL,[1],0%
same,EOSINOPHIL,[1],0.33%
same,ERYTHROCYTE COUNT,[1],5.3 x10E6/uL
same,HEMATOCRIT,[1],32%
same,HEMOGLOBIN,[1],12.6 G/DL
same,LEUKOCYTE COUNT,[1],7.67 x10E3/uL
same,LYMPHOCYTE,[1],86%
same,MEAN CORPUSCULAR HEMOGLOBIN,[1],23.8 pg
same,MEAN CORPUSCULAR HEMOGLOBIN CONCENTRATION,[1],39.37 G/DL
same,MEAN CORPUSCULAR VOLUME,[1],60.37 fL
same,MONOCYTE,[1],1.33%
same,NEUTROPHIL,[1],12.33%
same,NUCLEATED RED BLOOD CELLS,[1],0 /100WBC
same,PLATELET COUNT,[1],1108.33 x10E3/uL
same,ALANINE AMINOTRANSFERASE,[1],42.67 u/L
same,ALBUMIN,[1],4.13 G/DL
same,ALKALINE PHOSPHATASE,[1],433.33 u/L
same,ASPARTATE AMINOTRANSFERASE,[1],75.33 u/L
same,BLOOD UREA NITROGEN,[1],15.33 mg/dL
same,CARBON DIOXIDE,[1],25.67 mmol/L
same,CHLORIDE,[1],102.33 MEQ/L
same,CHOLESTEROL,[1],82.67 mg/dL
same,CREATINE PHOSPHOKINASE,[1],189.67 u/L
same,CREATININE,[1],0.28 mg/dL
same,GLUCOSE,[1],176.33 mg/dL
same,LACTATE DEHYDROGENASE,[1],163.33 u/L
same,LIPASE,[1],10 u/L
same,PHOSPHORUS,[1],11.93 mg/dL
same,POTASSIUM,[1],5.88 MEQ/L
same,SODIUM,[1],145.3 MEQ/L
same,TOTAL BILIRUBIN,[1],0.1 mg/dL
same,TOTAL PROTEIN,[1],6.07 G/DL
same,URIC ACID,[1],1.5 mg/dL
same,ABSOLUTE BASOPHIL,[2],0 CELLS/uL
same,ABSOLUTE EOSINOPHIL,[2],62.33 CELLS/uL
same,ABSOLUTE LYMPHOCYTE,[2],7750.67 CELLS/uL
same,ABSOLUTE MONOCYTE,[2],54.67 CELLS/uL
same,ABSOLUTE SEGMENTED NEUTROPHIL,[2],1099 CELLS/uL
same,BASOPHIL,[2],0%
same,EOSINOPHIL,[2],0.67%
same,ERYTHROCYTE COUNT,[2],5.14 x10E6/uL
same,HEMATOCRIT,[2],31.23%
same,HEMOGLOBIN,[2],11.97 G/DL
same,LEUKOCYTE COUNT,[2],8.97 x10E3/uL
same,LYMPHOCYTE,[2],86.67%
same,MEAN CORPUSCULAR HEMOGLOBIN,[2],23.33 pg
same,MEAN CORPUSCULAR HEMOGLOBIN CONCENTRATION,[2],38.33 G/DL
same,MEAN CORPUSCULAR VOLUME,[2],60.87 fL
same,MONOCYTE,[2],0.67%
same,NEUTROPHIL,[2],12%
same,NUCLEATED RED BLOOD CELLS,[2],0.67 /100WBC
same,PLATELET COUNT,[2],1052.67 x10E3/uL
same,ALANINE AMINOTRANSFERASE,[2],54 u/L
same,ALBUMIN,[2],4.33 G/DL
same,ALKALINE PHOSPHATASE,[2],480.33 u/L
same,ASPARTATE AMINOTRANSFERASE,[2],86 u/L
same,BLOOD UREA NITROGEN,[2],17 mg/dL
same,CARBON DIOXIDE,[2],30 mmol/L
same,CHLORIDE,[2],104 MEQ/L
same,CHOLESTEROL,[2],77.67 mg/dL
same,CREATINE PHOSPHOKINASE,[2],137.33 u/L
same,CREATININE,[2],0.47 mg/dL
same,GLUCOSE,[2],160.67 mg/dL
same,LACTATE DEHYDROGENASE,[2],98.33 u/L
same,LIPASE,[2],11 u/L
same,PHOSPHORUS,[2],13.1 mg/dL
same,POTASSIUM,[2],5.91 MEQ/L
same,SODIUM,[2],148.57 MEQ/L
same,TOTAL BILIRUBIN,[2],0.13 mg/dL
same,TOTAL PROTEIN,[2],6 G/DL
same,URIC ACID,[2],1.17 mg/dL
same,ABSOLUTE BASOPHIL,[3],0 CELLS/uL
same,ABSOLUTE EOSINOPHIL,[3],0 CELLS/uL
same,ABSOLUTE LYMPHOCYTE,[3],9516.67 CELLS/uL
same,ABSOLUTE MONOCYTE,[3],47 CELLS/uL
same,ABSOLUTE SEGMENTED NEUTROPHIL,[3],1103 CELLS/uL
same,BASOPHIL,[3],0%
same,EOSINOPHIL,[3],0%
same,ERYTHROCYTE COUNT,[3],5.74 x10E6/uL
same,HEMATOCRIT,[3],34.53%
same,HEMOGLOBIN,[3],13.23 G/DL
same,LEUKOCYTE COUNT,[3],10.67 x10E3/uL
same,LYMPHOCYTE,[3],88.67%
same,MEAN CORPUSCULAR HEMOGLOBIN,[3],23.07 pg
same,MEAN CORPUSCULAR HEMOGLOBIN CONCENTRATION,[3],38.33 G/DL
same,MEAN CORPUSCULAR VOLUME,[3],60.23 fL
same,MONOCYTE,[3],0.33%
same,NEUTROPHIL,[3],11%
same,NUCLEATED RED BLOOD CELLS,[3],0 /100WBC
same,PLATELET COUNT,[3],1161.33 x10E3/uL
same,ALANINE AMINOTRANSFERASE,[3],47 u/L
same,ALBUMIN,[3],4.43 G/DL
same,ALKALINE PHOSPHATASE,[3],491.67 u/L
same,ASPARTATE AMINOTRANSFERASE,[3],84.33 u/L
same,BLOOD UREA NITROGEN,[3],22 mg/dL
same,CARBON DIOXIDE,[3],24.67 mmol/L
same,CHLORIDE,[3],105 MEQ/L
same,CHOLESTEROL,[3],64 mg/dL
same,CREATINE PHOSPHOKINASE,[3],157 u/L
same,CREATININE,[3],0.73 mg/dL
same,GLUCOSE,[3],176.33 mg/dL
same,LACTATE DEHYDROGENASE,[3],96.33 u/L
same,LIPASE,[3],8.67 u/L
same,PHOSPHORUS,[3],12.63 mg/dL
same,POTASSIUM,[3],6.59 MEQ/L
same,SODIUM,[3],146.77 MEQ/L
same,TOTAL BILIRUBIN,[3],0.1 mg/dL
same,TOTAL PROTEIN,[3],5.97 G/DL
same,URIC ACID,[3],1.8 mg/dL
